Target: T1, Human Polymorphonuclear Leukocyte Elastase (Homo sapiens, UniProt P08246)
T1 sequence (P08246 30-247 limits assumed): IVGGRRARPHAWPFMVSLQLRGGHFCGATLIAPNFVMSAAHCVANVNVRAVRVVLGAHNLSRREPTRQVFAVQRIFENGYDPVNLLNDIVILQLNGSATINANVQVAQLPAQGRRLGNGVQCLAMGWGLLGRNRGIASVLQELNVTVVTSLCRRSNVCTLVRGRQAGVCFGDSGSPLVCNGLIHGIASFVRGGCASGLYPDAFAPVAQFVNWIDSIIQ
Assay: Inhibition of human polymorphonuclear leukocyte elastase via hydrolysis of N-t-Boc-alanyl-alanyl-prolyl-alanine-p-nitroanilide (Boc-AAPAN)
Type: biochemical
Settings: 50% inhibition of the enzyme activity 2 minutes after zero time; crude human PMN extract, 0.2 mM Boc-AAPAN, pH 7.5; read-out: ED50 (the source's name) (converted)

Compound CC(=O)OCC1=C(C(=O)OC(C)(C)C)N2C(=O)C(Cl)(Cl)C2[S+]([O-])C1 (stereo not shown) [7,7-dichloro / OtBu / H] has an IC50 of 5.02 µM.

For CC(=O)OCC1=C(C(=O)OC(C)(C)C)N2C(=O)[C@H](F)[C@H]2[S+]([O-])C1 (stereo partly drawn) [F / OtBu / H, t-Butyl 3-acetyloxymethyl-7α-fluoro-8-oxo-5-thia-1-azabicyclo[4.2.0]oct-2-ene-2-carboxylate-5-oxide], the IC50 was 5.76 µM.

For CO[C@H]1C(=O)N2C(C(=O)OCc3ccccc3)=C(COC(C)=O)C[S+]([O-])[C@H]12 (stereo partly drawn) [OCH3 / OCH2 .phi. / H, Benzyl 3-acetyloxymethyl-7α-methoxy-8-oxo-5-thia-1-azabicyclo[4.2.0]oct-2-ene-2-carboxylate-5-oxide], the IC50 was 7.63 µM.

COC(=O)C1=C(COC(C)=O)C[S+]([O-])C2C(OC)C(=O)N12 (stereo not shown) [OCH3 / OCH3 / H] showed an IC50 of 25.2 µM.

Source: patent publication US4623645A, “Substituted cephalosporin sulfoxides as anti-inflammatory and antidegenerative agents” (Merck & Co., Inc., priority 1983, dated 1986)
